Tests used:
[1] = target: T1, Neuronal acetylcholine receptor; alpha4/beta2 (Homo sapiens, UniProt P17787+P43681); experiment: Potency index, ratio of nicotine Ki to test compound Ki for Displacement of [3H]cytisine from human alpha4beta2 nAChR by Cheng-Prusoff equation analysis; type: protein-complex assay
[2] = target: T1, Neuronal acetylcholine receptor; alpha4/beta2; experiment: Potency index, ratio of nicotine IC50 to test compound IC50 for Displacement of [3H]cytisine from human alpha4beta2 nAChR by radioligand competition analysis; type: protein-complex assay
[3] = target: T1, Neuronal acetylcholine receptor; alpha4/beta2
[4] = target: T1, Neuronal acetylcholine receptor; alpha4/beta2; remark: listed apart in the source
PC-12 [5] = experiment: Induction of neurite outgrowth in rat PC-12 cells at 3.3 uM incubated for 24 hrs by phase contrast microscopic analysis relative to control; type: functional
PC-12 [6] = experiment: Induction of neurite outgrowth in rat PC-12 cells at 10 uM incubated for 24 hrs by phase contrast microscopic analysis relative to control; type: functional
PC-12 [7] = experiment: Induction of neurite outgrowth in rat PC-12 cells at 33 uM incubated for 24 hrs by phase contrast microscopic analysis relative to control; type: functional
[8] = Protection against caffeine-induced mortality in mouse at 250 mg/kg; type: ADME, organism-based; details: in vivo
[9] = Protection against strychnine-induced mortality in mouse at 100 mg/kg; type: ADME, organism-based; details: in vivo
Mus musculus [10] = experiment: Anti-analeptic activity in mouse assessed as reduction in lethality at 125 to 150 mg/kg coadministered with camphor relative to control; type: functional; design: scale not given: the % may be the effect or the level left; details: dose 125-150 mg/kg
Mus musculus [11] = experiment: Anti-analeptic activity in mouse assessed as reduction in convulsion at 125 to 150 mg/kg coadministered with camphor relative to control; type: functional; design: scale not given: the % may be the effect or the level left; details: dose 125-150 mg/kg
Mus musculus [12] = experiment: Anti-analeptic activity in mouse assessed as reduction in corazol-induced convulsion at 25 mg/kg relative to control; type: functional; design: scale not given: the % may be the effect or the level left
Mus musculus [13] = experiment: Anti-analeptic activity in mouse assessed as reduction in corazol-induced convulsion at 75 mg/kg relative to control; type: functional; design: scale not given: the % may be the effect or the level left
[14] = Toxicity in ip dosed albino rat; type: organism-based; details: in vivo
Rattus norvegicus [15] = experiment: Protection against pentylenetetrazol-induced convulsion in rat at 50 to 100 mg/kg, ip relative to control; type: functional; details: dose 50-100 mg/kg
Rattus norvegicus [16] = species: Rattus norvegicus; experiment: Potentiation of diphenylhydantoin-induced anticonvulsant activity in rat relative to control; type: functional
Rattus norvegicus [17] = species: Rattus norvegicus; experiment: Potentiation of morphine-induced analgesia in rat relative to control; type: functional
Mus musculus [18] = species: Mus musculus; experiment: Antiaggressive activity in mouse assessed as reduction in foot shock induced fighting behavior; type: functional; design: scale not given: the % may be the effect or the level left
Mus musculus [19] = species: Mus musculus; experiment: Antipsychotic activity in trained mouse assessed as reduction in ability of mouse to remain on rotating rod; type: functional
Mus musculus [20] = species: Mus musculus; experiment: Antipsychotic activity in albino mouse assessed as potentiation of hexobarbital-induced sleeping time; type: functional
Mus musculus [21] = species: Mus musculus; experiment: Antipsychotic activity in mouse assessed as reduction in amphetamine-induced toxicity; type: functional; design: scale not given: the % may be the effect or the level left
[22] = Toxicity in iv dosed Swiss-Webster mouse by up-and-down method; type: organism-based; details: in vivo
[23] = target: T2, Neuronal acetylcholine receptor subunit alpha-7 (Rattus norvegicus, UniProt Q05941); experiment: Displacement of 125I-alpha-bungarotoxin from rat brain alpha7 nAChR by radioligand binding assay
T2 sequence (Q05941 whole entry): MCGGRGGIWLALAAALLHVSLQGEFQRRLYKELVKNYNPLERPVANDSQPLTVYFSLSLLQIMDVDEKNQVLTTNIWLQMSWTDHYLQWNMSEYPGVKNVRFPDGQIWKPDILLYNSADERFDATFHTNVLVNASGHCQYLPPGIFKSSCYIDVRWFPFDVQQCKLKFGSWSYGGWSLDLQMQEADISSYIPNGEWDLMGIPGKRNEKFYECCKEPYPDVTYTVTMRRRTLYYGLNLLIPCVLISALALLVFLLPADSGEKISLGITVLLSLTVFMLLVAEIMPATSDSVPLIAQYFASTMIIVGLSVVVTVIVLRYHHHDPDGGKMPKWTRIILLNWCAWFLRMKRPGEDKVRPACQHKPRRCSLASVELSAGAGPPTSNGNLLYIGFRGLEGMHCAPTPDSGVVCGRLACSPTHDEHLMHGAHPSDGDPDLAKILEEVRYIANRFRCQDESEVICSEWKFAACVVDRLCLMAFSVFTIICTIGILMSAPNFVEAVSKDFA

[24] = target: T2, Neuronal acetylcholine receptor subunit alpha-7; experiment: Agonist activity at rat brain alpha7 nAChR
Acetylcholinesterase = Acetylcholinesterase (Homo sapiens, UniProt P22303); experiment: Inhibition of human erythrocyte acetylcholinesterase using acetylthiocholine as substrate preincubated for 20 mins followed by substrate addition and measured every 30 secs for 1 hr by Ellman's method
Sequence of Acetylcholinesterase (P22303 whole entry): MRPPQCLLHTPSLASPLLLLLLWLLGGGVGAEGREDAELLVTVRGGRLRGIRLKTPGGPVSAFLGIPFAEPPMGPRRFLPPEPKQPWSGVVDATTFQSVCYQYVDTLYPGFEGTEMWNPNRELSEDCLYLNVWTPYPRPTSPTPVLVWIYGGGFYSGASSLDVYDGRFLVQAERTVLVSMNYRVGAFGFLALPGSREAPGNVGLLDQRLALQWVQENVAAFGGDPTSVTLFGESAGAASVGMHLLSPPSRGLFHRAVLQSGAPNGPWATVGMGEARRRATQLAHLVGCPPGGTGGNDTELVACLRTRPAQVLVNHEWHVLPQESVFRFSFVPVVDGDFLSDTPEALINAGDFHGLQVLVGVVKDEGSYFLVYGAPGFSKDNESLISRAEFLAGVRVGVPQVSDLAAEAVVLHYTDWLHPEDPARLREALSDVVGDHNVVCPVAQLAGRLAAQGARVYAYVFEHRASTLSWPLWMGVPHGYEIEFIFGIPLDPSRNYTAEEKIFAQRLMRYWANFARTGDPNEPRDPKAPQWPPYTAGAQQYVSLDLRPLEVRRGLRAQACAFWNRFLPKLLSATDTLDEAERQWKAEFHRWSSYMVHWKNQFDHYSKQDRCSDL

[25] = Toxicity in male rat; details: in vivo
[26] = Toxicity in female rat; details: in vivo
[27] = Neuroprotective activity against NMDA-induced cell death in rat neurons assessed as cell survival pretreated for 45 mins followed by NMDA stimulation and measured after 30 mins by MTT assay (reference value: […]%); type: functional, Neuron; details: time 75 min; 1.25 h
[28] = Neuroprotective activity against Bay-K8644-induced calcium mobilization in rat forebrain derived neurons assessed as calcium elevation at 100 nM (reference value: 521 nM); type: functional, Neuron
[29] = Neuroprotective activity against glutamate-induced calcium mobilization in rat forebrain derived neurons assessed as calcium elevation at 100 nM (reference value: 811 nM); type: functional, Neuron
[30] = Neuroprotective activity against glutamate-induced cell death in rat forebrain derived neurons assessed as neuron death at 100 nM incubated for 45 mins (reference value: 55%); type: functional; details: 0.75 h
[31] = target: T1, Neuronal acetylcholine receptor; alpha4/beta2; experiment: Potency index, ratio of nicotine I-max to compound I-max for human brain alpha4beta2 nAChR expressed in CHO cells; type: cell-based
[32] = target: T1, Neuronal acetylcholine receptor; alpha4/beta2; experiment: Potency index, ratio of nicotine EC50 to compound EC50 for human brain alpha4beta2 nAChR expressed in CHO cells; type: cell-based
[33] = target: T1, Neuronal acetylcholine receptor; alpha4/beta2; experiment: Agonist activity at human brain alpha4beta2 nAChR expressed in CHO cells assessed as maximal receptor response by patch clamp electrophysiological assay relative to control; type: cell-based
[34] = target: T1, Neuronal acetylcholine receptor; alpha4/beta2; remark: listed apart in the source
Description: Agonist activity at human brain alpha4beta2 nAChR expressed in CHO cells by patch clamp electrophysiological assay

T1 sequence (P17787 whole entry): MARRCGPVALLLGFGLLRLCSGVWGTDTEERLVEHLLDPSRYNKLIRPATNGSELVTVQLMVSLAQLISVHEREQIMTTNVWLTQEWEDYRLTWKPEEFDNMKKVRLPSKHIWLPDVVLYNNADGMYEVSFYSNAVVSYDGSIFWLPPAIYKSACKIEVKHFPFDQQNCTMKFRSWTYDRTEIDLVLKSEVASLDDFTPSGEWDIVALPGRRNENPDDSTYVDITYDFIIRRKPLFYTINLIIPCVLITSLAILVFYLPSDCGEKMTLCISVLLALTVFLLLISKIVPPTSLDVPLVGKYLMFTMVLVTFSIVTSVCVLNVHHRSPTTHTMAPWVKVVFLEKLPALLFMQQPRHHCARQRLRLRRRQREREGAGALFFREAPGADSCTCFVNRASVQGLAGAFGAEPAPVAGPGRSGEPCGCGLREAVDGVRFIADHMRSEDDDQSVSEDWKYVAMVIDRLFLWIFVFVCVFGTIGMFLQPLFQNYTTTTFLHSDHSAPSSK
T1 sequence (P43681 whole entry): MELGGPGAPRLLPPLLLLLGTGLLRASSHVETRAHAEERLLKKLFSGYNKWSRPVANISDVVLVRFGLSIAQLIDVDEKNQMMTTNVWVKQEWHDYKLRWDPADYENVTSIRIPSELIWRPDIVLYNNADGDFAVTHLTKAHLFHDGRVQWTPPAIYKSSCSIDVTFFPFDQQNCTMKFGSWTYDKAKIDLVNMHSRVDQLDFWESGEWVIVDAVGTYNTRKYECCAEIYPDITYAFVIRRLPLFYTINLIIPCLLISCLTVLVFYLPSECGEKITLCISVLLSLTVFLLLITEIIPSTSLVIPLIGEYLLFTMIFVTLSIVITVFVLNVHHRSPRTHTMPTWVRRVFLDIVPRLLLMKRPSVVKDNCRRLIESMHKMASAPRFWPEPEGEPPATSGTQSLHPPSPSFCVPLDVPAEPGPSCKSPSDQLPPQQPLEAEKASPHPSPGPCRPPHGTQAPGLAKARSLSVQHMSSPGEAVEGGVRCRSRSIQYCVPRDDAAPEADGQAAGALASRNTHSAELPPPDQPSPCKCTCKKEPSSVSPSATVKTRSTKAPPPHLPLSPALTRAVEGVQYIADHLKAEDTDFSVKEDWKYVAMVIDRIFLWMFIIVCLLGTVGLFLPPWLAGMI

C[C@@H]1CC2C3Cn4c(cccc4=O)C(CN2C)C31 (stereo not given in full)
Ratio Ki [1]: 5
Ratio IC50 [2]: 5
Ki [3]: 0.00032 µM
IC50 [4]: 0.00096 µM

CC[C@@H](C)C[C@@H](C)/C=C(C)/C=C/C=C/C(=O)c1c(O)c(C2(O)CCC(O)CC2)cn(O)c1=O (stereo not given in full)
Activity (PC-12 [5]): 30%
Activity (PC-12 [6]): 70%
Activity (PC-12 [7]): 80%

COc1c2c(nc3occc13)[C@@](CC=C(C)C)(OC)[C@H](O)CC2
Activity [8]: 80%
Activity [9]: 100%
Activity (Mus musculus [10]): 100%
Activity (Mus musculus [11]): 50%
Activity (Mus musculus [12]): 50%
Activity (Mus musculus [13]): 100%

C=Cc1cncc2c1CCOC2=O
LD50 [14]: 276 mg/kg
Activity (Rattus norvegicus [15]): 70%
Activity (Rattus norvegicus [16]): 60%
Activity (Rattus norvegicus [17]): 150%
Activity (Mus musculus [18]): 60%
Activity (Mus musculus [19]): 80%
Activity (Mus musculus [20]): 80%
Activity (Mus musculus [21]): 88%

c1cncc([C@@H]2CCCCN2)c1 [ANABASINE]
LD50 [22]: 16 mg/kg
Ki [23]: 0.39 µM
EC50 [24]: 18 µM

C/C=C1\C2C=C(C)CC1(NCC(=O)OC)c1ccc(=O)[nH]c1C2 (stereo not given)
IC50 (Acetylcholinesterase): 6.71 µM

C/C=C1\[C@H]2C=C(C)C[C@]1(N)c1ccc(=O)[nH]c1C2 [HUPERZINE A]
LD50 [25]: > 4 mg/kg
LD50 [26]: 2 mg/kg
Activity [27]: 85%
Activity [28]: 505 nM
Activity [29]: 668 nM
Activity [30]: 30%

CN1CC=CC[C@H]1c1cccnc1
Ratio [31]: 6
Ratio EC50 [32]: 8
Imax [33]: 26%
EC50 [34]: 6.2 µM

From ChEMBL document CHEMBL4673260, “Pyridine alkaloids with activity in the central nervous system” (Bioorg Med Chem, 2020)
